Paper PMC8151276, “An Integrated Approach toward NanoBRET Tracers for Analysis of GPCR Ligand Engagement” (Molecules, 2021)

Key:
Format in all cases: binding
GABBR1 = biological target: T1, GABBR1 (Homo sapiens, UniProt Q9UBS5); assay: NanoBRET screen HiBiT-GABBR1 in HEK293; details: GABBR1
T1 construct: purchased Promega (in-house HiBiT-GPCR construct library, NanoBRET)
Procedure: (§1) Each tracer candidate was screened across the entire library of HiBiT-GPCR constructs using NanoBRET as the detection modality. As depicted in Figure 4A, the specificity of interactions was evaluated through decrease in BRET due to competitive displacement of a bound tracer by excess parental compound. Each tracer was analyzed for binding to each HiBiT-GPCR fusion in the absence and in the presence of competing parental compound. Briefly, HEK293 cells were transfected with HiBiT-GPCR constructs diluted into promoterless DNA to reduce expression and maximize translocation to the cell surface. Each tracer candidate was then screened at concentrations of 1 μM and 0.1 μM across cells expressing these fusions. Cells were treated for 1.5 h with tracer either alone or in the presence of 20 μM competing parental compound (i.e., control). BRET was measured upon addition of purified LgBiT and subsequent complementation with HiBiT genetically fused to a GPCR. The specificity of interactions was assessed through a decrease in BRET signal due to competitive displacement of the bound tracer. To further gauge the robustness of these interactions, the fold response over the control (i.e., BRETtracer/BRETcontrol) was calculated. We chose a 1.5-fold response, which translates to ≥7-fold signal over noise as the minimal threshold required to score an interaction as positive. […]. Below we highlight the screening results obtained for our exemplary fluorescent tracers based on Clozapine, Amitriptyline and AZD1283.
(§2) HiBiT-GPCR DNA constructs were diluted in 10 mM Tris pH 8 to a final concentration of 0.01 μg/μL, arrayed in 96-well plates and stored at −20 °C. For transfection, HEK293 cells were suspended in Opti-MEM (without phenol red) supplemented with 2% fetal bovine serum (Seradigm) and 100 units/mL penicillin–streptomycin (Gibco) at a final concentration of 220,000 cells/mL and dispensed into white 96-well plates at 90 μL/well. Subsequent transfections and screens were carried using an Agilent Bravo Automated Liquid Handling Platform. First, the 96-well HiBiT DNA arrays were diluted 25-fold in Opti-MEM (without serum or phenol red) to a final concentration of 0.0004 μg/μL and 20 μL of the diluted DNAs were transferred into new 96-well plates. Next, promoterless carrier DNA (1 μg/μL) was diluted 25-fold (0.04 μg/μL) and then dispensed into the diluted arrays at 20 μL/well. Following brief mixing, Viafect transfection reagent (Promega) diluted 16-fold into Opti-MEM was dispensed into the plates at 40 μL/well. After mixing by pipetting, plates were incubated for 10 min on the pipetting station deck. The DNA-transfection reagent complexes were then added to plates containing cells. To facilitate the screen, 10 μL of DNA-transfection reagent complexes were added in duplicates to the top 4 and bottom 4 rows, resulting in two identical 48-well arrays per plate. Plates with transfected cells were incubated for 18–20 h at 37 °C/5% CO2. A screen of each tracer across the entire library using two different concentrations requires duplicate plates of transfected cells. Depending on the number of tracers being screened, transfections can be scaled up using the same ratios. The next day, for each tracer, four 20× screening solutions in tracer dilution buffer (Promega) were prepared: two duplicates at final concentration of 20 μM and two duplicates at a final concentration of 2 μM. A competing unmodified compound was added to one of each duplicate at a final concentration of 400 μM. The four resulting solutions were diluted 4-fold in Opti-MEM without serum or phenol red to generate 5× solutions (5 µM and 0.5 µM tracer +/− 100 μM competing compound). To screen the library, a BioTek MultiFlo FX liquid dispenser was used to dispense 22.5 µL of tracer solution to the top 4 rows and 22.5 µL tracer + competing compound solution to the 4 bottom rows. Plates were briefly mixed on an orbital shaker and incubated for 1.5 h at room temperature. […]

GRPR = biological target: T2, GRPR (Homo sapiens, UniProt P30550); assay: NanoBRET screen HiBiT-GRPR in HEK293; details: GRPR
T2 construct: purchased Promega (in-house HiBiT-GPCR construct library, NanoBRET)
Procedure: as §1, §2

CNR1 = biological target: T3, CNR1 (Homo sapiens, UniProt P21554); assay: NanoBRET screen HiBiT-CNR1 in HEK293; details: CNR1
T3 construct: purchased Promega (in-house HiBiT-GPCR construct library, NanoBRET)
Procedure: as §1, §2

GRM3 = biological target: T4, GRM3 (Homo sapiens, UniProt Q14832); assay: NanoBRET screen HiBiT-GRM3 in HEK293; details: GRM3
T4 construct: purchased Promega (in-house HiBiT-GPCR construct library, NanoBRET)
Procedure: as §1, §2

T2 sequence (P30550 whole entry): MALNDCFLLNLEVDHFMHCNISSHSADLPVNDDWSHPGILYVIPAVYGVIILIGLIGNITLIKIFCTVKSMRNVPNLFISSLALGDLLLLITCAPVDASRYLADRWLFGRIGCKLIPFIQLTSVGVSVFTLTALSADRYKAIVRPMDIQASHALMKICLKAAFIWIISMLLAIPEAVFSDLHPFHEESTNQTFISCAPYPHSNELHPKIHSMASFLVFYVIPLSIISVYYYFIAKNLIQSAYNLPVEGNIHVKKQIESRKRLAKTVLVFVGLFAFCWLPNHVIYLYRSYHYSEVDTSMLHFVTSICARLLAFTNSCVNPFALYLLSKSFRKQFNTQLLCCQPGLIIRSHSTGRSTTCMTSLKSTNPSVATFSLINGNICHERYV
T4 sequence (Q14832 23-879): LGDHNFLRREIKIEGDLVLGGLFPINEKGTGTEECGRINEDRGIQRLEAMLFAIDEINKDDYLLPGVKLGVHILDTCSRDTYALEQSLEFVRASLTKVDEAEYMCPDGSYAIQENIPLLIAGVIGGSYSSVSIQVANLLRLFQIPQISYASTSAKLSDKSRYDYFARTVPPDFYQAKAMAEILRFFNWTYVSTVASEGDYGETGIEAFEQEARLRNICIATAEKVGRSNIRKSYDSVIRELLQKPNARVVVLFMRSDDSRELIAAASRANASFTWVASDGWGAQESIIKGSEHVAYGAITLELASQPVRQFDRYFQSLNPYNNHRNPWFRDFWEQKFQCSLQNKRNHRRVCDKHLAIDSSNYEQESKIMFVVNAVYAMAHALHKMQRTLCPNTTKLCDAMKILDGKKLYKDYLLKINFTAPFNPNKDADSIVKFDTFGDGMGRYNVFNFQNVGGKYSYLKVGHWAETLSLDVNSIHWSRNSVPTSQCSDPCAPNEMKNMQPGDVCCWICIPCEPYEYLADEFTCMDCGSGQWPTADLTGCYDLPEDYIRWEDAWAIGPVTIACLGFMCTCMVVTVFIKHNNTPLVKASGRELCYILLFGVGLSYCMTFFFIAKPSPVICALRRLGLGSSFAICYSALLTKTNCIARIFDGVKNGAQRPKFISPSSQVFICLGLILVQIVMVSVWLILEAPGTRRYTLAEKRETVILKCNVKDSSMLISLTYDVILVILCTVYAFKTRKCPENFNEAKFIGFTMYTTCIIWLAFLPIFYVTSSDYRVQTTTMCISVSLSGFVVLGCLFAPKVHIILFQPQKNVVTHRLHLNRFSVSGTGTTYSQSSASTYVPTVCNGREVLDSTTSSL
T1 sequence (Q9UBS5 15-961 limits assumed): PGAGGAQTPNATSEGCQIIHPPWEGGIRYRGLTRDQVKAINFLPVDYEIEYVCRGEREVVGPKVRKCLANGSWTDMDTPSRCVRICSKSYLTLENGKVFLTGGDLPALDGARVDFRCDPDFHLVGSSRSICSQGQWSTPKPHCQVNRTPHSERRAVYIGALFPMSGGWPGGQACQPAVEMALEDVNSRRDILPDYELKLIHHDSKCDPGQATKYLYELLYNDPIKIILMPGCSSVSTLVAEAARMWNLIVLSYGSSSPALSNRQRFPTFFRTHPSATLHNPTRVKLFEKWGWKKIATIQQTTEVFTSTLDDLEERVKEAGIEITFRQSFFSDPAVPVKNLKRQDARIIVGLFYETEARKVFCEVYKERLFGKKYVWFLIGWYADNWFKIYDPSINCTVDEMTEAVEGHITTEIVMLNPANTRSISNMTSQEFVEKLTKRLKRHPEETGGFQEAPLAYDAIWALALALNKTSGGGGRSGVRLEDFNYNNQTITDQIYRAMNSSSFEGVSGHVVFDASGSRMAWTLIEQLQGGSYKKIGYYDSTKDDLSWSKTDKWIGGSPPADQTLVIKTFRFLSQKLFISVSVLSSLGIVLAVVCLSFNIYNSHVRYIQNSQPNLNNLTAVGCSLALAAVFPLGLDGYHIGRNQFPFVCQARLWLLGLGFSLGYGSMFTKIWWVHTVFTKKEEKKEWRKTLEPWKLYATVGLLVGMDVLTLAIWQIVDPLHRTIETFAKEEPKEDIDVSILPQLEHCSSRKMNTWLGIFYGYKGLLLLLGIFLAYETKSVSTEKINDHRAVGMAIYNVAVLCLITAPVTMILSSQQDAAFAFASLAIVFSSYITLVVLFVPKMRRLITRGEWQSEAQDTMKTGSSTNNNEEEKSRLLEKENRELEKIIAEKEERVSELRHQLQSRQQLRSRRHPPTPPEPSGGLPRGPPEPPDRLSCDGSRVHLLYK
T3 sequence (P21554 whole entry): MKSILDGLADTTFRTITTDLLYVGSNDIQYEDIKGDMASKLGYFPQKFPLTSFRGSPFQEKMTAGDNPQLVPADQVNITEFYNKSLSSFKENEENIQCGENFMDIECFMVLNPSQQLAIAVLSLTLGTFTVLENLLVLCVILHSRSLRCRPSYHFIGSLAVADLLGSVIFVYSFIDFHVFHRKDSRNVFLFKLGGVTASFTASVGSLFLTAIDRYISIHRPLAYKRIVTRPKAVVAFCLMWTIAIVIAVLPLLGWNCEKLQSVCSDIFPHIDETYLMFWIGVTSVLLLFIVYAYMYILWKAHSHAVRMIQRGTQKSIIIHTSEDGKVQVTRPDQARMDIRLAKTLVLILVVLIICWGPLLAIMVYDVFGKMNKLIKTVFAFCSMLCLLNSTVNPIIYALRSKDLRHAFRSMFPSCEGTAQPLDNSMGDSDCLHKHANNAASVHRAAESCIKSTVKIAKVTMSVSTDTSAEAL

Row | SMILES | NanoBRET Fold Response (GABBR1; 0.1μM tracer) | NanoBRET Fold Response (GABBR1; 1μM tracer) | NanoBRET Fold Response (GRPR; 0.1μM tracer) | NanoBRET Fold Response (GRPR; 1μM tracer) | NanoBRET Fold Response (CNR1; 0.1μM tracer) | NanoBRET Fold Response (CNR1; 1μM tracer) | NanoBRET Fold Response (GRM3; 0.1μM tracer) | NanoBRET Fold Response (GRM3; 1μM tracer) | NanoBRET Fold Response (GABBR1; tracer 0.1μM) | NanoBRET Fold Response (GABBR1; tracer 1μM) | NanoBRET Fold Response (GRPR; tracer 0.1μM) | NanoBRET Fold Response (GRPR; tracer 1μM) | NanoBRET Fold Response (CNR1; tracer 0.1μM) | NanoBRET Fold Response (CNR1; tracer 1μM) | NanoBRET Fold Response (GRM3; tracer 0.1μM) | NanoBRET Fold Response (GRM3; tracer 1μM)
1 | O=C(CCOCCOCCOCCOCCNC(=O)CCc1ccc2n1[B-](F)(F)[N+]1=C(c3ccc[nH]3)C=CC1=C2)NCCCN1CCN(C2=Nc3cc(Cl)ccc3Nc3ccccc32)CC1 [Clozapine-a-2-NB590] | 0.96 | 1.33 | 1.11 | 1.37 | 1.02 | 1.04 | 0.97 | 0.96 |  |  |  |  |  |  |  | 
2 | CN1CCN(C2=Nc3cc(Cl)ccc3Nc3ccc(CNC(=O)CCOCCOCCOCCOCCNC(=O)CCc4ccc5n4[B-](F)(F)[N+]4=C(c6ccc[nH]6)C=CC4=C5)cc32)CC1 [Clozapine-b-2-NB590] | 0.93 | 1.38 | 1.01 | 1.00 | 1.01 | 1.03 | 0.99 |  |  |  |  |  |  |  |  | 
3 | CN1CCN(C2=Nc3cc(Cl)ccc3N(CC(=O)NCCOCCOCCOCCOCCNC(=O)CCc3ccc4n3[B-](F)(F)[N+]3=C(c5ccc[nH]5)C=CC3=C4)c3ccccc32)CC1 [Clozapine-c-2-NB590] | 0.97 | 0.89 | 1.01 | 0.99 | 0.99 | 1.05 | 0.93 | 1.07 |  |  |  |  |  |  |  | 
4 | O=C(CCOCCOCCOCCOCCNC(=O)CCc1ccc2n1[B-](F)(F)[N+]1=C(c3ccc[nH]3)C=CC1=C2)NCCCN1CCN(C2=Nc3ccccc3Oc3ccc(Cl)cc32)CC1 [Loxapine-a-2-NB590] |  |  |  |  |  |  |  |  | 1.03 | 0.92 | 1.17 | 1.09 | 0.72 | 0.29 | 0.99 | 1.03
5 | COc1ccccc1N1CCN(CCCCN2C(=O)c3ccc(CNC(=O)CCOCCOCCOCCOCCNC(=O)CCc4ccc5n4[B-](F)(F)[N+]4=C(c6ccc[nH]6)C=CC4=C5)cc3C2=O)CC1 [NAN-190-2-NB590] |  |  |  |  |  |  |  |  | 0.88 | 0.93 | 0.99 | 0.92 | 1.02 |  | 0.95 | 
6 | COc1ccccc1N1CCN(CCCCN2C(=O)c3ccc(CNC(=O)CCOCCNC(=O)c4ccc(CNC(=O)CCc5ccc6n5[B-](F)(F)[N+]5=C(c7ccc[nH]7)C=CC5=C6)cc4)cc3C2=O)CC1 [NAN-190-3-NB590] |  |  |  |  |  |  |  |  | 0.80 | 1.07 | 0.87 | 0.94 | 1.10 | 1.01 | 0.98 | 1.25
7 | O=C(CCc1ccc2n1[B-](F)(F)[N+]1=C(c3ccc[nH]3)C=CC1=C2)NCc1ccc(C(=O)NCCOCCC(=O)N[C@@H]2CC[C@@]3(O)[C@H]4Cc5ccc(O)c6c5[C@@]3(CCN4CC3CC3)[C@H]2O6)cc1 [Naltrexone-3-NB590] |  |  |  |  |  |  |  |  | 0.93 | 0.49 | 0.91 | 0.92 | 0.96 | 0.95 | 1.15 | 0.81
8 | Cc1cc2c(s1)Nc1ccccc1N=C2N1CCN(CCCNC(=O)CCOCCOCCOCCOCCNC(=O)CCc2ccc3n2[B-](F)(F)[N+]2=C(c4ccc[nH]4)C=CC2=C3)CC1 [Olanzapine-a-2-NB590] |  |  |  |  |  |  |  |  | 0.94 | 1.20 | 0.95 | 0.93 | 0.99 | 1.05 | 1.02 | 1.02
